Our source for the Kd values is patent US10010560B2, “Small molecule HSP70 inhibitors” (THE TRUSTEES OF THE UNIVERSITY OF PENNSYLVANIA, priority 2014, dated 2018).

Common to all, as to test: ITC, mutated full-length ADP-HSP70
Holding throughout (format): binding
Background: In ITC the heat of successive injections is recorded.

For assay [1], the target named is T1, ADP-HSP70 G484D (Homo sapiens, UniProt P0DMV8, E110D/G484D).
T1 construct: The full-length HSP70 and DnaK mutants were constructed by PCR-based site-directed mutagenesis; His6 (N); made in house; host or cells: E. coli BL21 Star (DE3)
T1 sequence (P0DMV8 whole entry E110D/G484D): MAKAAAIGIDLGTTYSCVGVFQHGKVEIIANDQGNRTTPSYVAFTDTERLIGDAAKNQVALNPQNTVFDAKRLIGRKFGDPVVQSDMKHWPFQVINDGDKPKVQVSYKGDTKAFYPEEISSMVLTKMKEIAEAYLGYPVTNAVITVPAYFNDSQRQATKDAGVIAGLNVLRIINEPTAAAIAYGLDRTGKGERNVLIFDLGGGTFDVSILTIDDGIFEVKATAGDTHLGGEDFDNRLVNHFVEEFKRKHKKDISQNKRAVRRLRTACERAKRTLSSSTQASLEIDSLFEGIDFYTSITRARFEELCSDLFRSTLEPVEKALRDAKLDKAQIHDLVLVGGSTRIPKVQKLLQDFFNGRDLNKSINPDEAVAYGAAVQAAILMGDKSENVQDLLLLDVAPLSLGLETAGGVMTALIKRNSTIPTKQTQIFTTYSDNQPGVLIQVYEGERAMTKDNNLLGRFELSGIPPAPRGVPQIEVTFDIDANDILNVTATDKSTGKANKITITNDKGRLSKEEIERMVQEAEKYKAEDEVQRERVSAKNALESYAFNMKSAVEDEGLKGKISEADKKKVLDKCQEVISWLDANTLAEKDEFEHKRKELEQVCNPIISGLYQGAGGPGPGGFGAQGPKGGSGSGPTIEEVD
Conditions: ADP-HSP70 mutant G484D. From the text:
(§1) The human stress-inducible HSP70 (residues 1-641 or 386-616 of SEQ ID NO: 2) and E. coli DnaK (residues 1-638, 389-607, or 393-507 of SEQ ID NO: 4) were cloned into the pET25 vector (EMD Millipore Chemicals, Inc., Billerica, Mass., USA) between the NdeI and XhoI restriction sites. The full-length HSP70 and DnaK mutants were constructed by PCR-based site-directed mutagenesis using the QuikChange™ Site-Directed Mutagenesis Kit (Agilent Technologies, Inc., Santa Clara, Calif., USA). All plasmid inserts were verified by DNA sequencing. All HSP70 and DnaK variants were produced with a N-terminal His6-tag in the E. coli BL21 Star (DE3) strain (Invitrogen catalog number C6010-03). The resulting strains were grown at 37° C. in LB medium containing 50 μg/mL of carbenicillin (Sigma-Aldrich Co., St. Louis, Mo., USA). At an OD600 about 0.3 to about 0.5, protein expression was induced with 0.5 mM isopropyl-β-D-thiogalactopyranoside (IPTG), and cells were subsequently grown at 25° C. for about 16 h. Cells were collected by centrifugation and resuspended in the Bugbuster® Master Mix (EMD Millipore Chemicals catalog number 71456-4), supplemented with protease inhibitors, 1 mM diethiothreitol (DTT) and 20 mM imidazole. The His6-tagged fusion proteins were isolated on Ni^2+-chelating resins (Ni-NTA Superflow, Qiagen catalog number 30410) by standard procedures. When necessary, size-exclusion chromatography on a Superdex® 200 or a Superose® 6 10/300 GL columns (GE Healthcare) analytical column pre-equilibrated with 1× Dulbecco's Phosphate Buffered Saline (DPBS—Invitrogen 14190-136), 1 mM Tris-HCl (pH 7.4) or 10 mM Tris-HCl (pH 7) was used as the final purification step. The purified DnaK proteins were dialyzed thoroughly against 1× DPBS with 5 mM DTT at 4° C., for crystallization trials involving the small molecule inhibitor PET-16. For isothermal titration calorimetry studies, all HSP70 and DnaK variants were dialyzed extensively against the buffers as noted below under the section entitled “Isothermal Titration calorimetry Studies”. The dialyzed proteins were subsequently microcentrifugated at 15,000×g for 5 min at 4° C. and aliquots of the soluble proteins were stored at −80° C.
(§2) All ITC experiments were performed using a MicroCal VP-ITC isothermal titration calorimeter (MicroCal). Both full-length HSP70 and DnaK proteins and DnaK (aa 393-507) proteins were prepared in 1 mM Tris-HCl (pH 7.4) buffer containing 3% dimethylsulfoxide (DMSO). The HSP70 (aa 386-616) protein was prepared in buffer containing 3% DMSO and 10 mM Tris-HCl, pH 7. The syringe was loaded with purified protein in either 1 mM Tris-HCl (pH 7.4) buffer containing 3% DMSO or 10 mM Tris-HCl (pH 7) buffer containing 3% DMSO. The sample cell of the calorimeter was loaded with PES, PET-16 or NRLLLTG (SEQ ID NO: 7) prepared in the same buffer. All solutions were degassed for 5 min.
(§3) The titrations involving the full-length purified proteins were performed at 25° C. with injection volumes of 12 μL and a spacing of 300 s. The titrations involving the purified HSP70 (aa 386-616) and DnaK (aa 393-507) were performed at 42° C. with injection volumes of 12 μL and a spacing of 300 s. Heat from the pre-injection was not used during fitting. The data were fit using a one-site binding model available in the Origin® ITC data analysis software (MicroCal Origin® V5.0, MicroCal Software, Northampton, Mass.). Error values obtained from the MicroCal Origin® V5.0 software were averaged and reported.
(§4) The information from crystal structure analysis pointed to particular amino acid residues as potential contact sites for interaction with PET-16. Single point mutants were thereby introduced in the context of a full-length DnaK protein, as well as at the corresponding residues within HSP70; these mutant proteins were analyzed by ITC for ability to bind to PET-16. The DnaK mutations included residues L392D, P396L, L399R, G482D, A503D and […]; those in HSP70 were L394D, P398L, L401R, G484D, N505D and D506A. […]

Assay [2] deals with T2, ADP-HSP70 N505D (Homo sapiens, UniProt P0DMV8, E110D/N505D).
T2 construct: The full-length HSP70 and DnaK mutants were constructed by PCR-based site-directed mutagenesis; His6 (N); made in house; host or cells: E. coli BL21 Star (DE3)
T2 sequence (P0DMV8 whole entry E110D/N505D): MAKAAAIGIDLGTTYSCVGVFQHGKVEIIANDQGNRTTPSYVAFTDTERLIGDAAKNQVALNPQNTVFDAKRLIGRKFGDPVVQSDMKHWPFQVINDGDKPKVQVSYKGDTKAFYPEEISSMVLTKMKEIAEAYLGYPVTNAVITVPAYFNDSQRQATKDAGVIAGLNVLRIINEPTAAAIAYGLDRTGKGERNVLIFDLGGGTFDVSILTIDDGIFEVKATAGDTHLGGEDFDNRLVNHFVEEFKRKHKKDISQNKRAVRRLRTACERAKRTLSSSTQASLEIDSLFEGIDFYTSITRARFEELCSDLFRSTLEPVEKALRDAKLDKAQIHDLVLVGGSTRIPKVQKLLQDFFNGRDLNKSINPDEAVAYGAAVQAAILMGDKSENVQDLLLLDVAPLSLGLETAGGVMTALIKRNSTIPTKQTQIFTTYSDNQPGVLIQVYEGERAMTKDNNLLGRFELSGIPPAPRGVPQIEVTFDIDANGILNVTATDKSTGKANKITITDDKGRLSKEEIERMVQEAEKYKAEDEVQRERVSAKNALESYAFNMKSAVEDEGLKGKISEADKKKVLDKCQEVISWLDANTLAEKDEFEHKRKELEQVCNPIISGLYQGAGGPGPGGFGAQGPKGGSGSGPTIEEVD
Conditions: ADP-HSP70 mutant N505D.
Source text: as §1, §2, §3, §4

Assay [3] addresses T3, ADP-HSP70 D506A (Homo sapiens, UniProt P0DMV8, D506A/E110D).
T3 construct: The full-length HSP70 and DnaK mutants were constructed by PCR-based site-directed mutagenesis; His6 (N); made in house; host or cells: E. coli BL21 Star (DE3)
Conditions: ADP-HSP70 mutant D506A.
Source text: as §1, §2, §3, §4

For assay [4], the target named is T4, ADP-HSP70 L394D (Homo sapiens, UniProt P0DMV8, E110D/L394D).
T4 construct: The full-length HSP70 and DnaK mutants were constructed by PCR-based site-directed mutagenesis; His6 (N); made in house; host or cells: E. coli BL21 Star (DE3)
T4 sequence (P0DMV8 whole entry E110D/L394D): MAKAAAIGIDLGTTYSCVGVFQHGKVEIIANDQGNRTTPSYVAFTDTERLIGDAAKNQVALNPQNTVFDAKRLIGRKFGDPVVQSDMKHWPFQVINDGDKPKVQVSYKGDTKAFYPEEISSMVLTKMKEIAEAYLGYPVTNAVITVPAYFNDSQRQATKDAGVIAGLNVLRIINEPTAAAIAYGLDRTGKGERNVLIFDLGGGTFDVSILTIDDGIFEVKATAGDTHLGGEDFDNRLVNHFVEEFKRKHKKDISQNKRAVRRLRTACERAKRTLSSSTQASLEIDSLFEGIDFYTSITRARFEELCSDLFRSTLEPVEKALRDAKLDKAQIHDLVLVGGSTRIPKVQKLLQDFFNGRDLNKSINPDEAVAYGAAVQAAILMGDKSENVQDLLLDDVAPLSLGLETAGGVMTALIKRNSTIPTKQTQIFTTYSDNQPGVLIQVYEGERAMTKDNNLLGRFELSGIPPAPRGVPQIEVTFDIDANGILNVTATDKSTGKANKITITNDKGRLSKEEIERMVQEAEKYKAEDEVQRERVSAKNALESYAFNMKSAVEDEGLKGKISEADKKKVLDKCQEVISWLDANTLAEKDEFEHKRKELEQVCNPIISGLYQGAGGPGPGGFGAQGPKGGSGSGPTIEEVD
Conditions: ADP-HSP70 mutant L394D.
Source text: as §1, §2, §3, §4

The target of assay [5] is T5, ADP-HSP70 P398L (Homo sapiens, UniProt P0DMV8, E110D/P398L).
T5 construct: The full-length HSP70 and DnaK mutants were constructed by PCR-based site-directed mutagenesis; His6 (N); made in house; host or cells: E. coli BL21 Star (DE3)
T5 sequence (P0DMV8 whole entry E110D/P398L): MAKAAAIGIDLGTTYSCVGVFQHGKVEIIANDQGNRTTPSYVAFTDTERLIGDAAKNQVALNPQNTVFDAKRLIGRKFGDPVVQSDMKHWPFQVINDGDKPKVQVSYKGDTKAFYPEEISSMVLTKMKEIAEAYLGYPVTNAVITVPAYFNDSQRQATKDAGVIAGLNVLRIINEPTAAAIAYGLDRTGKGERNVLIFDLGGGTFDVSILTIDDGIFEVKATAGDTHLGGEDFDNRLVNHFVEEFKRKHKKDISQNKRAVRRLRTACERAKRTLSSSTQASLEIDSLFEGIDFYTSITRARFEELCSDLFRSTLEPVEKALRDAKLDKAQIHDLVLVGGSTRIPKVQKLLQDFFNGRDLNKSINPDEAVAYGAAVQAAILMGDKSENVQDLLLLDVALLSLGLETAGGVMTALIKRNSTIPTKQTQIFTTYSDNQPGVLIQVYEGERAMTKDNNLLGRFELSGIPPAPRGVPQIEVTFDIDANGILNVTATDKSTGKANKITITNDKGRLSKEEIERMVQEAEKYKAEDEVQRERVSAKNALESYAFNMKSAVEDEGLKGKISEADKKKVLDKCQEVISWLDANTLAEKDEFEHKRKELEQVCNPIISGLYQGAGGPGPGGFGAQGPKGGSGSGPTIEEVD
Conditions: ADP-HSP70 mutant P398L.
Source text: as §1, §2, §3, §4

The target in assay [6] is T6, ADP-HSP70 L401R (Homo sapiens, UniProt P0DMV8, E110D/L401R).
T6 construct: The full-length HSP70 and DnaK mutants were constructed by PCR-based site-directed mutagenesis; His6 (N); made in house; host or cells: E. coli BL21 Star (DE3)
T6 sequence (P0DMV8 whole entry E110D/L401R): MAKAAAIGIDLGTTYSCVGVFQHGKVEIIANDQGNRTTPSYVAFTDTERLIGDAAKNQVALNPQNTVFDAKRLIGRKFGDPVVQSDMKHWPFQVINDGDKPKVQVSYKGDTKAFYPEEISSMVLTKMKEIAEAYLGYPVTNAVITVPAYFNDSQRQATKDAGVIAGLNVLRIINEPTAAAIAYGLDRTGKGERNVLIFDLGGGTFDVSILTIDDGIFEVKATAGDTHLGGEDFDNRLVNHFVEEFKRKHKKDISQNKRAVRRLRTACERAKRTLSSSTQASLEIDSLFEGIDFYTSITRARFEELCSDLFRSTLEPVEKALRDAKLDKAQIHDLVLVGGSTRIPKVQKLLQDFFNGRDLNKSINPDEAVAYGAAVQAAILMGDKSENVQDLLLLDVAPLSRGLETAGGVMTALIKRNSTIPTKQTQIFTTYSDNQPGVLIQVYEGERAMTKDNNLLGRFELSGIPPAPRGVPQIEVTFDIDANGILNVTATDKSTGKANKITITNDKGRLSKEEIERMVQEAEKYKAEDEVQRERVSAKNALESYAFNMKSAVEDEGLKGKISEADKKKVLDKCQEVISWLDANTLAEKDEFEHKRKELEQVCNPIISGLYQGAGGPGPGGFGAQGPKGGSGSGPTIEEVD
Conditions: ADP-HSP70 mutant L401R.
Source text: as §1, §2, §3, §4

T3 sequence (P0DMV8 whole entry E110D/D506A): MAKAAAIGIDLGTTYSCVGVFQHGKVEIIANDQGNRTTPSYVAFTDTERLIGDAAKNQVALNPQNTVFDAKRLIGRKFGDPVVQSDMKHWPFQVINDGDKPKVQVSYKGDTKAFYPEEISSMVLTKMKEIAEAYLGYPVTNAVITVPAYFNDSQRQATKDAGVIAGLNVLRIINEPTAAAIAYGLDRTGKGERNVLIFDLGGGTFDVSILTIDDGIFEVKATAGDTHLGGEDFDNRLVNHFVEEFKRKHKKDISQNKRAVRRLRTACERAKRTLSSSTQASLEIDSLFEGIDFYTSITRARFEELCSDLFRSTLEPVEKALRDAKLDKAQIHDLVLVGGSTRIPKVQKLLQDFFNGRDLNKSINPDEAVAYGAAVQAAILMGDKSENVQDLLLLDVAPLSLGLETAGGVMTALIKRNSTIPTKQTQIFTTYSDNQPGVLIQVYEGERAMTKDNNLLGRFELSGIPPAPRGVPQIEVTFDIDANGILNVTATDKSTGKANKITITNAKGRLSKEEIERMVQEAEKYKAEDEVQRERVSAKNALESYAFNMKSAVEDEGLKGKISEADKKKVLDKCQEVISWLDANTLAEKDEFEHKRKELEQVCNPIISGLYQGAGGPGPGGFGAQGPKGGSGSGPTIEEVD

As to `C(#C[P+](c1ccccc1)(c1ccccc1)c1ccccc1)c1ccccc1.[Br-]` [PET-16, triphenyl(phenylethynyl)phosphonium bromide], the Kd in assay [1] worked out at 98.8 ± 5.1 µM; in assay [2], 147 ± 6.5 µM; in assay [3], 112 ± 3.8 µM; in assay [4], 30.8 ± 0.6 µM; in assay [5], 23.4 ± 1.2 µM; in assay [6] it was 43.2 ± 9.9 µM.

Broadly, the Kd is a measure of binding affinity in units of concentration. Higher therefore signals a looser complex.
